In ChEMBL document CHEMBL3817833, “Synthesis and evaluation of antitubercular activity of fluorinated 5-aryl-4-(hetero)aryl substituted pyrimidines” (Bioorg Med Chem, 2016):
In brackets after ≈: the same amount, converted by molar mass.

The compounds below were run on Mycobacterium tuberculosis (assay: Antimycobacterial activity against rifampin and isoniazid resistant-Mycobacterium tuberculosis Beijing harboring Ser 531 to Leu 315 and Ser to Thr in rpoB and katG genes mutation after 24 hrs by microbroth dilution method).
Format: functional

| Compound | MIC [µM] |
| --- | --- |
| c1ccc(-c2cncnc2)cc1 | 80.03 (≈ 12.5 µg/mL) |
| Fc1ccccc1-c1cncnc1 | 71.76 (≈ 12.5 µg/mL) |
| Fc1cc(F)cc(-c2cncnc2-c2cccs2)c1 | 45.57 (≈ 12.5 µg/mL) |
| Fc1ccc(-c2cncnc2-c2ccco2)cc1 | 52.03 (≈ 12.5 µg/mL) |
| Fc1ccc(-c2cncnc2)cc1 | 71.76 (≈ 12.5 µg/mL) |
| FC(F)(F)c1cc(-c2cncnc2-c2cccs2)cc(C(F)(F)F)c1 | 33.39 (≈ 12.5 µg/mL) |
| Fc1ccc(-c2cncnc2-c2cccs2)cc1 | 12.5 (≈ 3.2 µg/mL) |
| Fc1cccc(-c2cncnc2-c2cccs2)c1 | 12.5 (≈ 3.2 µg/mL) |
| FC(F)(F)c1cccc(-c2cncnc2-c2cccs2)c1 | 4.9 (≈ 1.5 µg/mL) |
| c1ccc(-c2cncnc2-c2ccco2)cc1 | 1.57 (≈ 0.349 µg/mL) |
| c1ccc(-c2cncnc2-c2cccs2)cc1 | 26.02 (≈ 6.2 µg/mL) |
| Fc1ccc(-c2cncnc2-c2cccs2)c(F)c1 | 45.57 (≈ 12.5 µg/mL) |
| Fc1cccc(-c2cncnc2-c2ccco2)c1 | 6.24 (≈ 1.5 µg/mL) |
| Fc1cc(F)cc(-c2cncnc2-c2ccco2)c1 | 24.01 (≈ 6.2 µg/mL) |
| FC(F)(F)c1ccccc1-c1cncnc1 | 27.66 (≈ 6.2 µg/mL) |
| FC(F)(F)c1ccc(-c2cncnc2)cc1 | 55.76 (≈ 12.5 µg/mL) |
| FC(F)(F)c1ccccc1-c1cncnc1-c1cccs1 | 20.24 (≈ 6.2 µg/mL) |

| Compound | MIC [µM] |
| --- | --- |
| FC(F)(F)c1ccc(-c2cncnc2)c(C(F)(F)F)c1 | 42.78 (≈ 12.5 µg/mL) |
| Fc1ccc(-c2cncnc2)c(F)c1 | 16.13 (≈ 3.1 µg/mL) |
| FC(F)(F)c1ccc(-c2cncnc2-c2ccco2)cc1 | 43.07 (≈ 12.5 µg/mL) |
| FC(F)(F)c1ccc(-c2cncnc2-c2ccco2)c(C(F)(F)F)c1 | 1.95 (≈ 0.699 µg/mL) |
| Fc1cccc(-c2cncnc2)c1 | 35.88 (≈ 6.25 µg/mL) |
| Fc1cc(F)cc(-c2cncnc2)c1 | 3.64 (≈ 0.699 µg/mL) |
| Fc1ccccc1-c1cncnc1-c1cccs1 | 12.5 (≈ 3.2 µg/mL) |
| FC(F)(F)c1ccc(-c2cncnc2-c2cccs2)cc1 | 40.81 (≈ 12.5 µg/mL) |
| Fc1ccc(-c2cncnc2-c2ccco2)c(F)c1 | 48.41 (≈ 12.5 µg/mL) |
| Fc1ccccc1-c1cncnc1-c1ccco1 | 52.03 (≈ 12.5 µg/mL) |
| FC(F)(F)c1cccc(-c2cncnc2-c2ccco2)c1 | 43.07 (≈ 12.5 µg/mL) |
| FC(F)(F)c1ccc(-c2cncnc2-c2cccs2)c(C(F)(F)F)c1 | 16.56 (≈ 6.2 µg/mL) |
| FC(F)(F)c1ccccc1-c1cncnc1-c1ccco1 | 43.07 (≈ 12.5 µg/mL) |
| FC(F)(F)c1cccc(-c2cncnc2)c1 | 55.76 (≈ 12.5 µg/mL) |
| FC(F)(F)c1cc(-c2cncnc2-c2ccco2)cc(C(F)(F)F)c1 | 8.65 (≈ 3.1 µg/mL) |
| FC(F)(F)c1cc(-c2cncnc2)cc(C(F)(F)F)c1 | 5.13 (≈ 1.5 µg/mL) |
| CC1COc2c(N3CCN(C)CC3)c(F)cc3c(=O)c(C(=O)O)cn1c23 (centres undefined) [OFLOXACIN] | 0.28 (≈ 0.101 µg/mL) |
